Measured values as given in paper PMC2942996 (Journal of molecular biology, 2010).

B1: isoprene synthase (PcISPS) (Populus tremula x Populus alba; C533W/K308R/N59D) (protein)
chain: EARRSADYEPNSWDYDFLLSSDTDESIEVYKDKAKKLEAEVRREINNEKAEFLTLLELIDNVQRLGLGYRFESDIRRALDRFVSSGGFDGVTKTSLHATALSFRLLRQHGFEVSQEAFSGFKDQNGNFLENLKEDTKAILSLYEASFLALEGENILDEARVFAISHLKELSEEKIGKELAEQVNHALELPLHRRTQRLEAVWSIEAYRKKEDANQVLLELAILDYNMIQSVYQRDLRETSRWWRRVGLATKLHFARDRLIESFYWAVGVAFEPQYSDCRNSVAKMFSFVTIIDDIYDVYGTLDELELFTDAVERWDVNAINDLPDYMKLCFLALYNTINEIAYDNLKDKGENILPYLTKAWADLCNAFLQEAKWLYNKSTPTFDDYFGNAWKSSSGPLQLIFAYFAVVQNIKKEEIENLQKYHDIISRPSHIFRLCNDLASASAEIARGETANSVSCYMRTKGISEELATESVMNLIDETWKKMNKEKLGGSLFAKPFVETAINLARQSHCTYHNGDAHTSPDELTRKRVLSVITEPILPFER

Experiments:
[1] = target: isoprene synthase (PcISPS) (Populus tremula x Populus alba, UniProt Q9AR86, C533W/K308R/N59D); experiment: competitive inhibition of isoprene formation, SBSE GC-MS assay; format: biochemical
enzyme kinetics = substrate: CC(C)=CCOP(=O)(O)OP(=O)(O)O; experiment: enzyme kinetics; format: biochemical, Populus tremula x Populus alba; conditions: Mg2+ active site

Row | Molecule | Ki [1] [µM] | Km (enzyme kinetics) [µM]
1 | CC(C)=CCC/C(C)=C/COP(=O)(O)OP(=O)(O)O [GPP, geranyl diphosphate] | 550 | 
2 | B1 |  | 3000
